Test results taken from PubChem BioAssay AID504765 (Sanford-Burnham Center for Chemical Genomics, 2011).
Activity calls are given as the source filed them. No rule for the calls is given here.

The molecules below were run against glucose-6-phosphate dehydrogenase-6-phosphogluconolactonase (Plasmodium falciparum 3D7) (assay: concentration-dependent PfGluPho enzyme inhibition – biochemical, fluorescence intensity, dose response (AID 504765)). Conditions: Recombinant PfG6PD enzyme, fluorescence intensity (NADPH).

SMILES | IC50
C/C(Cn1nnc([N+](=O)[O-])n1)=N\NC(=O)c1ccccc1O | 7.39 µM
CCSc1nc2cc(S(=O)(=O)N3CCOCC3)ccc2o1 | inactive
[O-]/[N+](=C/c1cccnc1)c1ccc(Br)cc1 | 1.11 µM
O=C(CCl)NCCN1C(=O)S/C(=C\c2cccnc2)C1=O | 9.89 µM
Cc1ccc(/C=C/C(=O)N2CCN(S(=O)(=O)c3ccc(C)c(C)c3)CC2)o1 | inactive
c1nc(SSc2ncnc3nc[nH]c23)c2[nH]cnc2n1 | 4.78 µM
c1ccc(-c2cn3c(n2)CCc2ccc4cccnc4c2-3)cc1 | 8.54 µM
COc1ccc(NS(=O)(=O)c2ccc(N3CCCC3)c(NC(=S)Nc3cccc(C)c3C)c2)cc1 | inactive
CCn1c2ccccc2c2cc(/C=N/n3cn[nH]c3=S)ccc21 | 9.81 µM
Cc1ccc2nc(SCC(=O)N/N=C/c3ccco3)cc(C)c2c1 | 10.3 µM
O=C(O)c1cccc(N2C(=O)C=CC2=O)c1 | 15.5 µM
CCOc1ccc(NC(=O)Cn2sc3nc(C)cc(C)c3c2=O)cc1 | 1.85 µM
CC(=O)Nc1cc(OC(C)=O)c2nonc2c1OC(C)=O | 11.9 µM
Clc1cccc(Cl)c1CNc1ccc(N2CCCC2)cc1 | 3.79 µM
O=C(O)C(Cc1ccccc1)N1C(=O)C=CC1=O (configuration not stated) | 6.01 µM
CCC1(C)CC(C(N)=S)CCO1 (configuration not stated) | inactive
Clc1ccc2nc(-c3ccc4c(c3)OCO4)cn2c1 | inactive
Cc1cc(SCC(=O)N/N=C/c2ccco2)nc2ccccc12 | 8.11 µM
OCc1ccccc1SSc1ccccc1CO | 16.5 µM
CCOC(=O)Nc1ccc(NCc2ccc(F)cc2)nc1N | 3 µM
O=c1c2ccccc2sn1-c1ccc(Cl)cc1 | 2.83 µM
COc1cccc(-c2c(C(=O)N/N=C/c3ccc(C)o3)nnn2-c2nonc2N)c1 | 13.2 µM
O=C(CNC(=O)c1ccco1)OCC(=O)c1ccc([N+](=O)[O-])cc1 | 19.1 µM
Cc1cc(C)nc(NC(N)=NCCc2ccccc2)n1 | 15 µM

SMILES | IC50
Cc1ccc(-c2c(C(=O)N/N=C/c3ccsc3)nnn2-c2nonc2N)cc1 | inactive
[O-]/[N+](=C\c1ccco1)c1ccc(Cl)cc1 | 1.39 µM
O=[N+]([O-])c1c(NCCCO)cc(Sc2nc3ccccc3s2)c2nonc12 | 12.5 µM
CCOC(=O)c1c(C2COc3ccccc3O2)csc1NC(=O)c1ccco1 (configuration not stated) | 14.2 µM
C[C@]12CC[C@@H]3c4cc(O)c(O)cc4CC[C@H]3[C@@H]1CC[C@@H]2O | inactive
CCOC(=O)c1c(C)n(-c2ccc(C)cc2)c2c(C(C(C)=O)C(=O)O)c(Br)c(O)c(O)c12 (configuration not stated) | 2.76 µM
CN(C)c1nc(=NCc2cccs2)ss1 | 11.9 µM
CCCNC(=O)Cn1sc2nc(C)cc(C)c2c1=O | 3.13 µM
O=C(Nc1ccccn1)c1sc2cc([N+](=O)[O-])ccc2c1Cl | inactive
O=C(Nc1nnc(S(=O)(=O)N2CCCCC2)s1)c1cccc(Br)c1 | 6.37 µM
COc1cc(/C=N/Nc2nncn2N)ccc1OCc1c(C)no[n+]1[O-] | 8.92 µM
Cc1ccc(S(=O)(=O)SC/C=C/CSS(=O)(=O)c2ccc(C)cc2)cc1 | 10.3 µM
Cc1cc(O)c(-c2cc(O)c(C)cc2O)cc1O | 1.88 µM
C#CCCc1cscc1/C=[N+](\[O-])c1ccc(C(=O)OCC)cc1 | 2.98 µM
COc1cccc(/C=N/NC(=O)c2c(C)nc3ccc(Br)cn23)c1 | 2.86 µM
O=c1c2ccccc2[se]n1-c1ccccc1 | 9.66 µM
CCc1ccc(OCC(=O)N/N=C/c2cc([N+](=O)[O-])ccc2N2CCOCC2)cc1 | 8.3 µM
c1ccc(-c2nc(N3CCOCC3)s[n+]2-c2ccccc2)cc1 | 3.97 µM
COc1ccc(CCn2c(NN=C(C)C)nc3c2c(=O)[nH]c(=O)n3C)cc1 | 4.82 µM
O=[N+]([O-])c1ccc(Sc2cccc3cccnc23)c2cccnc12 | 16.5 µM
Cc1ccc(NC(=O)c2cc(N3C(=O)C=CC3=O)ccc2Cl)cc1C | 14.1 µM
COc1cc(NCc2ccccc2)c2ncn(Cc3ccccc3)c2c1 | > 80 µM (inactive)
COc1ccc(C(=O)/C=C2\Sc3ccccc3N2C)cc1 | 7.94 µM
CCN(CC)c1ccc(NC(=O)c2cccc(C)c2)cc1S(=O)(=O)Nc1ccccc1OC | inactive

SMILES | IC50
CCC1(CC)Cc2ccccc2C(N)=C1C#N | inactive
COc1ccc(OC)c2c1C(=O)C(Cl)=C(Cl)C2=O | 4.64 µM
CCOC(=O)c1sc(NC(=O)CSc2nnc(Cc3ccccc3)o2)c(C#N)c1C | inactive
O=[N+]([O-])c1cccc(SSc2cccc([N+](=O)[O-])c2)c1 | 7.67 µM
O=[N+]([O-])c1ccc(-[n+]2ccc3ccccc3c2)c([N+](=O)[O-])c1 | 8.26 µM
COc1cc(N=Cc2c(CO)cnc(C)c2O)cc(OC)c1OC | 19.6 µM
O=C1C(c2cc(=O)c3ccccc3[nH]2)=C(O)c2ccccc21 | 8.25 µM
COc1cc(-c2nnc3n2N=C(c2ccccc2)CS3)cc(OC)c1OC | 3.88 µM
Cc1ccc(-n2sc3ccccc3c2=O)cc1 | 8.63 µM
O=C1CCN(c2ccccc2)N1 | 1.34 µM
COc1ccc(Nc2cc(C)c3c(O)cccc3n2)cc1 | 5.06 µM
Cc1cc(N=NC(=O)c2ccccc2O)c2ccccc2c1O | inactive
NC(=O)N/N=C/c1ccc(-n2nncc2-c2ccc(Cl)cc2)cc1 | 11.8 µM
CN(C)c1ccc(C=c2c3cc([N+](=O)[O-])ccc3n3c2cc(-c2ccccc2)[n+]3C)cc1 | 8.44 µM
O=C(CSc1nc2ccc(Cl)cc2[nH]1)NC1CCCc2ccccc21 (configuration not stated) | 15.6 µM
ClC(Cl)(c1nnnn1-c1ccccc1)c1nnnn1-c1ccccc1 | 3.8 µM
O=S(=O)(Nc1cc(Sc2ncn[nH]2)c(O)c2ccccc12)c1ccccc1 | 0.741 µM
c1cc(CNc2ccc3c(c2)OCO3)ccn1 | inactive
O=C(Nc1ccc(N2CCN(C(=O)c3ccco3)CC2)c(Cl)c1)c1cc2ccccc2o1 | 10.3 µM
Cc1ccc(CNc2ccc(O)cc2)cc1 | 8.8 µM
Cc1cccc(C(=O)Nc2nnc(S(=O)(=O)N3CCCCCC3)s2)c1 | 6.58 µM
Cc1ccc(-c2csc(NC(=O)c3ccc(Br)cc3)c2C(=O)O)cc1 | 6.25 µM
C=CCN1CCc2cccc3c2[C@H]1Cc1ccc(O)c(O)c1-3 | 19.6 µM
Cn1c2ccccc2c2ccc3c(c21)C(=O)C=CC3=O | > 80 µM (inactive)

SMILES | IC50
CC1=C(O)C(=O)C=C2C1=CC=C1C2(C)CCC2(C)C3CC(C)(C(=O)O)CCC3(C)CCC12C (configuration not stated) | 16.7 µM
CCN=c1scc(C)n1/N=C/c1ccc(O)c(O)c1O | 6.91 µM
CCn1c(SCC(=O)Nc2ccccc2OC)nnc1-c1cnccn1 | inactive
CC1(C)Cc2c(sc3nc4n(-c5ccccc5)c(=O)c(CCC(=O)O)nn4c(=O)c23)CO1 | 4.1 µM
O=C1C=CC(=O)N1c1ccc(N2CCCCC2)cc1 | 15.6 µM
CCn1c(N)c(C(=O)NC)sc1=S | inactive
CN(C)c1ccc(/C=C/c2ccc3c4ccccc4ccc3[n+]2-c2ccccc2)cc1 | inactive
COC1(OC)C=CC(=O)C=C1NC(=O)c1ccccc1OC(C)=O | 9.27 µM
N#Cc1ccc(Oc2cccc3cccnc23)c([N+](=O)[O-])c1 | 5.66 µM
COc1cc(N)c2ncsc2c1 | 15.5 µM
O=c1c2ccccc2sn1-c1cc(S(=O)(=O)N2CCOCC2)ccc1N1CCCC1 | 1.08 µM
CC(=NNC(=S)N1CCN(c2ccccn2)CC1)c1nccs1 | 5.6 µM
CC1(OC(=O)C2CCCC2)C(=O)C=C2C=C(c3ccsc3)N(Cc3ccc4c(c3)OCO4)C=C2C1=O (configuration not stated) | 11.1 µM
CC1CCc2[nH]c3ccc(C(=O)N(C)CC(=O)Nc4ccccc4C(F)(F)F)cc3c2C1 (configuration not stated) | 5.61 µM
O=S(=O)(Nc1cc(Sc2cccc3cccnc23)c(O)c2ccccc12)c1ccc(F)cc1 | 1.22 µM
CCOc1ccccc1NC(=O)CCCc1nc2ccccc2c(=O)[nH]1 | 7.4 µM
O=c1c2ccccc2sn1-c1ccccc1F | 6.48 µM
Cc1ccc(NC(=O)Cn2sc3nc(C)cc(C)c3c2=O)c(Cl)c1 | 2.09 µM
COc1ccc(C(=O)Nc2cc(Cl)ccc2C(=O)O)cc1 | 15 µM
C=CCSc1nc2sc3c(c2c(=O)n1CC)CCc1ccccc1-3 | inactive
Clc1ccc(N=c2ssnc2Cl)nc1 | inactive
COCc1cc(=O)n2[nH]c(C(C)(C)C)cc2n1 | 14.1 µM
N#CC1=C(N)Oc2c(O)cc3ccccc3c2C1c1ccsc1 (configuration not stated) | 6.71 µM
O=c1[nH]sc2cc(F)ccc12 | 9.86 µM

SMILES | IC50
CCOC(=O)Cc1cc(=O)n2[nH]c(C(C)(C)C)cc2n1 | 7.04 µM
Cc1ccc(/C=C/C(=O)NC2CCCCCCC2)o1 | 9.66 µM
Cc1ccc(/C=C/C(=O)NCc2ccc(S(N)(=O)=O)cc2)o1 | 5.78 µM
O=c1c2ccccc2sn1-c1ccccc1 | 1.15 µM
COc1ccc(C(=O)ON=C2C=C(C)C(=O)C(C)=C2)cc1 | inactive
COc1ccc(NC2CCCN(Cc3cccc4cnccc34)C2)cc1OC (configuration not stated) | inactive
Cc1ccccc1OCC(=O)NCC(=O)OCC(=O)c1ccc([N+](=O)[O-])cc1 | 17.2 µM
CN(C)c1ccc(Cc2cc3c(O)ccc(O)c3cc(Cc3ccc(N(C)C)cc3)c2=O)cc1 | 2.05 µM
COc1ccc(CN(C)S(=O)(=O)c2nnc(NC(=O)c3ccc(C)cc3)s2)cc1OC | 7.6 µM
CNS(=O)(=O)c1ccc(-c2ccc(C=C3C(=O)NC(=O)NC3=O)o2)cc1 | 8.75 µM
Fc1cccc(Cl)c1CNc1ccc(N2CCCC2)cc1 | 4.06 µM
COc1cc(C(=O)O/N=C2/C=C(C)C(=O)C=C2C)cc(OC)c1OC | 11.6 µM
Nn1c(SCC(=O)Nc2cccnc2Cl)nnc1-c1ccccc1 | inactive
CCC(CO)[n+]1c(C)cc(/C=C2\Sc3ccccc3N2Cc2ccccc2)cc1C (configuration not stated) | 12.2 µM
CCN1CCCC1CNC(=O)c1ccc2c(c1)NC(=O)/C(=C\c1ccc(C)cc1)S2 (configuration not stated) | 3.16 µM
Cc1cc(C)c[n+](C2=C([O-])c3ccccc3C(=O)/C2=N\S(=O)(=O)c2cccs2)c1 | 15.3 µM
CCN(CC)c1ccc(NC(=O)c2ccccc2Br)cc1S(=O)(=O)Nc1ccccc1OC | inactive
O=C(O)CSc1cc(NS(=O)(=O)c2ccc(Cl)cc2)c2ccccc2c1O | 4.17 µM
COc1cccc2nc3cc(C)c(C)cc3nc12 | 4.69 µM
O=C1C=CC(=O)N1c1ccc(-c2nc3ccccc3o2)cc1 | 12.6 µM
CCC(=O)OCCNc1cc(Sc2nc3ccccc3s2)c2nonc2c1[N+](=O)[O-] | 16.1 µM
